Like-named read-outs stand apart in the source and are kept apart here.
Experiments:
[1] = molecular target: T1, GnRH receptor (Homo sapiens, UniProt P30968); experiment: GnRH receptor-membrane binding assay ([125I]-D-Trp6-LHRH displacement); design: purchased PerkinElmer; host or cells: CHO-K1 (ATCC CCL-61), stably transfected; details: for inhibition at 0.01 µM: read-out: GnRH binding inhibition (%) at 10 nM; for inhibitory effect compared with compounds comprising alkyl group (Examples 1-2 and 1-3): benzyl versus alkyl substituent at spiro-piperidine, comment on Table 10 (binding and NFAT reporter)
T1 sequence (P30968 1-328): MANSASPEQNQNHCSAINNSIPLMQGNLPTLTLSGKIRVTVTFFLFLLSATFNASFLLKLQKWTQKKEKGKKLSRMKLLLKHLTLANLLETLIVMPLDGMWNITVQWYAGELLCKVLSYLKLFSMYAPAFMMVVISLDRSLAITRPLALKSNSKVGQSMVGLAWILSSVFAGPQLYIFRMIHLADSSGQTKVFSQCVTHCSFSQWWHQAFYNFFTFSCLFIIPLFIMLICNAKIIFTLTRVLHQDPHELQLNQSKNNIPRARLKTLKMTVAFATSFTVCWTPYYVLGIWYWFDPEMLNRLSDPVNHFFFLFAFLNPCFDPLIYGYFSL
Experimental: A GnRH receptor membrane binding assay was carried out for the compounds of the present invention by employing a membrane substrate (PerkinElmer) isolated from CHO-K1 cells (ATCC CCL-61) stably transfected with a GnRH receptor.
A reaction was initiated by the addition of a 0.2 nM [^125I]-labeled D-Trp^6-LHRH peptide and the GnRH receptor membrane substrate at a density of 1 μg/250 μL/well, together with the inventive compounds at various concentrations ranging from 0.1 nM to 100 nM, to a binding buffer composed of 25 mM Hepes (pH 7.4), 10 mM MgCl2, 1 mM CaCl2 and 0.5% BSA (pH 7.4). The reaction mixture was incubated at 27° C. for 1 hr and subjected to vacuum suction for binding to a filter (Fitermat A, PerkinElmer). The filter was washed several times with 50 mM tris-HCl buffer to terminate the reaction. The radioactivity binding to the filter was measured using MicroBeta2 TriLux (PerkinElmer). The binding inhibition rate (%) of the inventive compounds were analyzed on the basis of the measured radioactivity, and IC50 value was calculated using a non-linear least square regression method with Prism (GraphPad, Inc.).

[2] = molecular target: T1, GnRH receptor; experiment: NFAT reporter (luciferase) gene expression assay for antagonistic effect on GnRH receptor, HEK293 transformed with pcDNA3.1/GnRH receptor and pGL4/NFAT promoter; assay type: cell-based
Experimental: For evaluation of antagonistic effect on GnRH receptor, double-transformed cell line, HEK293 (ATCC CRL-1573) which is transformed with pcDNA3.1/GnRH receptor and pGL4/NFAT promoter, was employed.
To conduct a GnRH receptor assay, the HEK293 (ATCC CRL-1573) cell line was diluted at a density of 3×10^4 cells/well in a DMEM medium supplemented with 10% FBS, 1% Penicillin-Streptomycin, and plated into polylysine-coated 96-well plates having a white-clear bottom, followed by incubating the cells at 37° C. for 24 hrs. Then, the medium was changed with a serum-free DMEM medium (1% Penicillin-Streptomycin), and the cells were incubated for an additional 16 hrs before use.
Test compounds were added to the wells in an amount of 1 μM to 0.01 nM, respectively, and further incubated for 1 hr. Then, leuprolide acetate as a ligand (Sigma) was added to the wells in an amount of 1 nM or 20 nM and subjected to an additional incubation for 6 hrs. The reagent of Luciferase assay system (Promega, Cat. No. E1500) was added to the wells and luminescence was measured using a luminometer (PerkinElmer, VICTOR3™, 1420 Multilabel Counter). The compound of formula 10b described in J. Med. Chem. 2008, 51, 7478 was used as a comparative compound.
Each sample was analyzed at a 6-dose level and the NFAT reporter inhibitory rate (%) of the inventive compounds was calculated according to the following equation based on the measured luminescence. Inhibition (%)={1−(compound−negative control)/(positive control−negative control)}×100 [Equation]
wherein, positive control is GnRH treated group; and negative control is non-treated group.

[3] = compound at 10 nM, 0.2 nM [125I]-D-Trp6-LHRH, CHO-K1 GnRH receptor membrane
[4] = HEK293, read-out: NFAT reporter activity inhibition (%) at 100 nM
[5] = compound at 100 nM, leuprolide acetate as ligand, HEK293, read-out: NFAT reporter activity inhibition (%) at 100 nM

Structure (SMILES)	inhibition at 0.01 µM [1, 3] [%]	inhibition at 0.1 µM [2, 5] [%]	other results
COCCN1CCC2(CC1)OCc1c2c(=O)n(C[C@H](N)c2ccccc2)c(=O)n1Cc1c(F)cccc1C(F)(F)F [Example 1-2, (R)-3-(2-amino-2-phenylethyl)-1-(2-fluoro-6-(trifluoromethyl)benzyl)-1′-(2-methoxyethyl)-1H-spiro[furo[3,4-d]pyrimidine-5,4′-piperidine]-2,4(3H,7H)-dione]	50.8		
CC(C)(C)CN1CCC2(CC1)OCc1c2c(=O)n(C[C@H](N)c2ccccc2)c(=O)n1Cc1c(F)cccc1C(F)(F)F [Example 1-3, (R)-3-(2-amino-2-phenylethyl)-1-(2-fluoro-6-(trifluoromethyl)benzyl)-1′-neopentyl-1H-spiro[furo[3,4-d]pyrimidine-5,4′-piperidine]-2,4(3H,7H)-dione]			inhibition at 0.1 µM [2, 4]: 15%
COc1cccc(CN2CCC3(CC2)OCc2c3c(=O)n(C[C@H](N)c3ccccc3)c(=O)n2Cc2c(F)cccc2C(F)(F)F)c1 [Example 1-14, (R)-3-(2-amino-2-phenylethyl)-1-(2-fluoro-6-(trifluoromethyl)benzyl)-1′-(3-methoxybenzyl)-1H-spiro[furo[3,4-d]pyrimidine-5,4′-piperidine]-2,4(3H,7H)-dione]			inhibition at 0.1 µM [2, 4]: 34%; inhibition at 0.01 µM [1]: 96%
N#Cc1cccc(CN2CCC3(CC2)OCc2c3c(=O)n(C[C@H](N)c3ccccc3)c(=O)n2Cc2c(F)cccc2C(F)(F)F)c1 [Example 1-15, (R)-3-((3-(2-amino-2-phenylethyl)-1-(2-fluoro-6-(trifluoromethyl)benzyl)-2,4-dioxo-2,3,4,7-tetrahydro-1H-spiro[furo[3,4-d]pyrimidine-5,4′-piperidine]-1′-yl)methyl)benzonitrile]			inhibition at 0.1 µM [2, 4]: 67%; inhibitory effect compared with compounds comprising alkyl group (Examples 1-2 and 1-3) [1]: improved inhibitory effect; inhibition at 0.01 µM [1]: 91.3%
COC(=O)c1cccc(CN2CCC3(CC2)OCc2c3c(=O)n(C[C@H](N)c3ccccc3)c(=O)n2Cc2c(F)cccc2C(F)(F)F)c1 [Example 1-19, (R)-methyl 3-((3-(2-amino-2-phenylethyl)-1-(2-fluoro-6-(trifluoromethyl)benzyl)-2,4-dioxo-2,3,4,7-tetrahydro-1H-spiro[furo[3,4-d]pyrimidine-5,4′-piperidin]-1′-yl)methyl)benzoate]	97.5	89	inhibitory effect compared with compounds comprising alkyl group (Examples 1-2 and 1-3) [1]: improved inhibitory effect
N[C@@H](Cn1c(=O)c2c(n(Cc3c(F)cccc3C(F)(F)F)c1=O)COC21CCN(Cc2cccc3nonc23)CC1)c1ccccc1 [Example 1-25, (R)-3-(2-amino-2-phenylethyl)-1′-(benzo[c][1,2,5]oxadiazol-4-ylmethyl)-1-(2-fluoro-6-(trifluoromethyl)benzyl)-1H-spiro[furo[3,4-d]pyrimidine-5,4′-piperidine]-2,4(3H,7H)-dione]	91.3	56	
Cc1ccccc1CN1CCC2(CC1)OCc1c2c(=O)n(C[C@H](N)c2ccccc2)c(=O)n1Cc1c(F)cccc1C(F)(F)F [Example 1-26, (R)-3-(2-amino-2-phenylethyl)-1-(2-fluoro-6-(trifluoromethyl)benzyl)-1′-(2-methylbenzyl)-1H-spiro[furo[3,4-d]pyrimidine-5,4′-piperidine]-2,4(3H,7H)-dione]	102	22	
N[C@@H](Cn1c(=O)c2c(n(Cc3c(F)cccc3C(F)(F)F)c1=O)COC21CCN(Cc2ccccc2F)CC1)c1ccccc1 [Example 1-29, (R)-3-(2-amino-2-phenylethyl)-1-(2-fluoro-6-(trifluoromethyl)benzyl)-1′-(2-fluorobenzyl)-1H-spiro[furo[3,4-d]pyrimidine-5,4′-piperidine]-2,4(3H,7H)-dione]	104	58	
N[C@@H](Cn1c(=O)c2c(n(Cc3c(F)cccc3F)c1=O)COC21CCN(Cc2ccc(C(F)(F)F)o2)CC1)c1ccccc1 [Example 1-42, (R)-3-(2-amino-2-phenylethyl)-1-(2,6-difluorobenzyl)-1′-((5-(trifluoromethyl)furan-2-yl)methyl)-1H-spiro[furo[3,4-d]pyrimidine-5,4′-piperidine]-2,4(3H,7H)-dione]	93.9	82	
Cc1ccc(CN2CCC3(CC2)OCc2c3c(=O)n(C[C@H](N)c3ccccc3)c(=O)n2Cc2c(F)cccc2C(F)(F)F)cc1 [Example 1-50, (R)-3-(2-amino-2-phenylethyl)-1-(2-fluoro-6-(trifluoromethyl)benzyl)-1′-(4-methylbenzyl)-1H-spiro[furo[3,4-d]pyrimidine-5,4′-piperidine]-2,4(3H,7H)-dione]			inhibition at 0.1 µM [2, 4]: 17%; inhibition at 0.01 µM [1]: 96.3%
N[C@@H](Cn1c(=O)c2c(n(Cc3c(F)cccc3C(F)(F)F)c1=O)COC21CCN(Cc2ccc(Cl)cc2)CC1)c1ccccc1 [Example 1-51, (R)-3-(2-amino-2-phenylethyl)-1′-(4-chlorobenzyl)-1-(2-fluoro-6-(trifluoromethyl)benzyl)-1H-spiro[furo[3,4-d]pyrimidine-5,4′-piperidine]-2,4(3H,7H)-dione]	95.6	30	
N[C@@H](Cn1c(=O)c2c(n(Cc3c(F)cccc3C(F)(F)F)c1=O)COC21CCN(Cc2cocn2)CC1)c1ccccc1 [Example 1-63, (R)-3-(2-amino-2-phenylethyl)-1-(2-fluoro-6-(trifluoromethyl)benzyl)-1′-(oxazol-4-ylmethyl)-1H-spiro[furo[3,4-d]pyrimidine-5,4′-piperidine]-2,4(3H,7H)-dione]	88.6	18	
N[C@@H](Cn1c(=O)c2c(n(Cc3c(F)cccc3C(F)(F)F)c1=O)CCC21CCN(Cc2ccc(C(F)(F)F)o2)CC1)c1ccccc1 [Example 3-5, (R)-3-(2-amino-2-phenylethyl)-1-(2-fluoro-6-(trifluoromethyl)benzyl)-1′-((5-(trifluoromethyl)furan-2-yl)methyl)-6,7-dihydrospiro[cyclopenta[d]pyrimidine-5,4′-piperidine]-2,4(1H,3H)-dione]	101	99	
Cc1cccc(C(Cn2c(=O)c3c(n(Cc4c(F)cccc4C(F)(F)F)c2=O)COC32CCN(Cc3ccc(C(F)(F)F)o3)CC2)NCCCC(=O)O)n1 (stereo not drawn) [Example 36, 4-((2-(1-(2-fluoro-6-(trifluoromethyl)benzyl)-2,4-dioxo-1′-((5-(trifluoromethyl)furan-2-yl)methyl)-1H-spiro[furo[3,4-d]pyrimidine-5,4′-piperidin]-3(2H,4H,7H)-yl)-1-(6-methylpyridin-2-yl)ethyl)amino)butanoic acid]	88		inhibition at 0.01 µM ([2]; compound at 10 nM, leuprolide acetate as ligand, HEK293): 88.2%
CONC(=O)Nc1cccc(C(Cn2c(=O)c3c(n(Cc4c(F)cccc4C(F)(F)F)c2=O)COC32CCN(Cc3ccc(C(F)(F)F)o3)CC2)NC(=O)OC(C)(C)C)c1 (stereo not drawn) [Example 63, tert-butyl (2-(1-(2-fluoro-6-(trifluoromethyl)benzyl)-2,4-dioxo-1′-((5-(trifluoromethyl)furan-2-yl)methyl)-1H-spiro[furo[3,4-d]pyrimidine-5,4′-piperidin]-3(2H,4H,7H)-yl)-1-(3-(3-methoxyureido)phenyl)ethyl)carbamate]	89.8	100	

Source: patent US9481684B2, “Gonadotropin releasing hormone receptor antagonists, method for the preparation thereof and pharmaceutical composition comprising the same” (SK CHEMICALS CO., LTD., priority 2012, dated 2016)
